According to patent US4927658A, “Tris-hydroxymethyl alkane esters as low calorie fat mimetics” (Nabisco Brands, Inc., priority 1989, dated 1990):

Legend:
[1] = tested on: pancreatic lipase; settings: Minich, col. 4, lines 62-64; cited from earlier work
[2] = tested on: porcine pancreatic lipase; assay: in vitro digestibility using pancreatic lipase; type: in vitro ADME; settings: 37° C., pH 7.1
Protocol: This example outlines the procedure for estimating the in vitro digestibility of the synthetic fat mimetics of this invention using pancreatic lipase.
1. Buffer: A pH 7.1 phosphate buffer is prepared by dissolving 6.8 g. KH2 PO4 in 1 L. of millipore filtered water (to yield 0.05M phosphate). Fifty mg. Ca(NO3)2 and 5.0 g. cholic acid (Na salt, an ox bile isolate from Sigma) are added to give 300 microM Ca^++ and 0.5% cholic acid in 0.05M phosphate. The pH is adjusted to approximately 7.1 with solid NaOH. Several drops of Baker "Resi-analyzed" toluene are added to prevent bacterial growth during storage at 3°-5° C.
2. Lipase: About 15 mg./mL commercial porcine pancreatic lipase from U.S. Biochemical Corporation is dissolved in buffer.
3. Substrates and Standards: A 1.0 mL volumetric flask is charged with an amount of lipid substrate (test substance or standard) calculated to give a concentration of 200 nanomoles per microliter in Baker "Resi-analyzed" toluene. (The proper concentration may be approximated by […] the molecular weight of the lipid in question, dividing by 10, and diluting to the mark; this yields about 200 nanomoles per microliter.) This preparation affords the substrate to be used in the hydrolysis reactions. […]

[3] = rat, in vivo; cited from earlier work
[4] = in vivo animal feeding study for caloric availability; design: species or system male Sprague-Dawley rats; settings: rats, diet of 50% fort and 21% test compound, 14 days
Text: This example illustrates how the novel fat mimetics of this invention are screened for caloric availability by a carefully controlled in vivo animal feeding study.
An experimental relationship between total calories ingested and animal body weight gain is established by monitoring the body weight gain associated with consumption of a nutritionally balanced diet containing varying concentrations of a reference substance such as corn oil which has a known caloric availability. Correlations between total calories ingested and body weight gain are excellent (r=0.99).
Caloric availability of an unknown substance is evaluated by substituting a specific weight of the unknown substance for the reference substance and observing the body weight gain. The gain in body weight is equated to a total number of calories using the correlation previously established for the reference data. The estimated number of calories ingested are divided by the weight of unknown substance to give the apparent calories per gram for the unknown substance. Generally speaking, in these bioavailability studies, the degree of perianal pelt soiling correlates with reduced bioavailability.
The test animals are six-week-old male Sprague-Dawley rats obtained from the Portage, Mich. facility of the Charles River Laboratories, Inc. After acclamation for 15 days, the test duration is 14 days. […]

Compound: CCCCCCCC(=O)OCC(COC(=O)CCCCCCC)(COC(=O)CCCCCCC)COC(=O)CCCCCCC [pentaerythritol tetracaprylate]
- hydrolysis by pancreatic lipase [1]: not attacked, hydrolyzed

Compound: CCCCCCCC/C=C\CCCCCCCC(=O)OCC(COC(=O)CCCCCCC/C=C\CCCCCCCC)OC(=O)CCCCCCC/C=C\CCCCCCCC [triolein]
- hydrolysis by pancreatic lipase ([2]; triglyceride control, in 10 minutes): substantially hydrolyzed

Compound: corn oil
- caloric availability of reference [3]: 9.0 calories/gram

Compound: CCCCCCCC/C=C\CCCCCCCC(=O)OCC(C)(COC(=O)CCCCCCC/C=C\CCCCCCCC)COC(=O)CCCCCCC/C=C\CCCCCCCC [Example 1, 1,1,1-Tris hydroxymethylethane trioleate]
- hydrolysis by pancreatic lipase ([2]; after three hours contact with pancreatic lipase): limited hydrolysis
- caloric availability upon being metabolized [4]: about 3.3 kcal/gram
